Experimental findings from ChEMBL document CHEMBL1926553, “Synthesis and antitumor activity of conjugates of 5-Fluorouracil and emodin” (Eur J Med Chem, 2012) are described below.

Data set [1] has as its system SGC-7901. Kind of data set: Cytotoxicity against human SGC7901 cells after 2 days by alamar blue assay. The class given is functional, cell-based. The note with it: SGC-7901, 48 h. In general terms: Alamar Blue is a resazurin reagent that responds to reducing activity.
Data set [2] in a line: Cytotoxicity against human HO8910 cells after 2 days by alamar blue assay. Format: functional, cell-based. Conditions: HO-8910, 48 h.
Data set [3] concerns HepG2. Kind of data set: Cytotoxicity against human HepG2 cells after 2 days by alamar blue assay. Format: functional, cell-based. The note with it: HepG2, 48 h.
In data set [4] the test system is HEK293. Nature of the data set: Cytotoxicity against human HEK293 cells after 2 days by alamar blue assay. Conditions: HEK293, 48 h. The class given is cell-based.
Data set [5] concerns SGC-7901. Nature of the data set: Ratio of emodin IC50 to compound IC50 for human SGC7901 cells after 2 days by alamar blue assay. The class given is functional.
Data set [6] can be described thus: Ratio of compound IC50 to 5-Fluorouracil IC50 for human HEK293 cells after 2 days by alamar blue assay. Format: ADME, cell-based. Conditions: read-out: Ratio IC50.
Data set [7] is described as follows: Ratio of compound IC50 to emodin IC50 for human HEK293 cells after 2 days by alamar blue assay. Format: ADME, cell-based. Conditions: read-out: Ratio IC50.

Each structure is given as a SMILES string.

For the molecule `COc1cc(OC)c2c(c1)C(=O)c1cc(C)c(Cn3cc(F)c(=O)[nH]c3=O)c(OC)c1C2=O`, the IC50 in data set [1], in data set [2], in data set [3] and in data set [4] (read-out: IC50) was more than 100 µM in each case.

Take `COc1cc(OC)c2c(c1)C(=O)c1cc(C)c(Cn3cc(F)c(=O)n(C)c3=O)c(OC)c1C2=O`: the IC50 in data set [1], in data set [2] and in data set [3] was more than 100 µM in each case.

In the case of `CCn1c(=O)c(F)cn(Cc2c(C)cc3c(c2OC)C(=O)c2c(OC)cc(OC)cc2C3=O)c1=O`, the IC50 in data set [1], in data set [2] and in data set [3] was more than 100 µM each time.

Take `CCCCn1c(=O)c(F)cn(Cc2c(C)cc3c(c2OC)C(=O)c2c(OC)cc(OC)cc2C3=O)c1=O`: the IC50 in data set [1], in data set [2] and in data set [3] was more than 100 µM each time.

Regarding `C/C=C/Cn1c(=O)c(F)cn(Cc2c(C)cc3c(c2OC)C(=O)c2c(OC)cc(OC)cc2C3=O)c1=O`, the IC50 in data set [1], in data set [2] and in data set [3] was more than 100 µM throughout.

In the case of `COc1cc(OC)c2c(c1)C(=O)c1cc(C)c(Cn3cc(F)c(=O)n(CC=C(C)C)c3=O)c(OC)c1C2=O`, the IC50 in data set [1], in data set [2] and in data set [3] was more than 100 µM in each case.

With `COc1cc(OC)c2c(c1)C(=O)c1cc(C)c(Cn3cc(F)c(=O)n(Cc4ccccc4)c3=O)c(OC)c1C2=O`, in data set [5], the “Ratio IC50” value stood at 1.5. Moreover, the IC50 is 39.5 µM in data set [1], 45.1 µM in data set [2], more than 100 µM in data set [3] and more than 100 µM in data set [4] (read-out: IC50).

Consider `COc1cc(OC)c2c(c1)C(=O)c1cc(C)c(Cn3cc(F)c(=O)n(CCc4ccccc4)c3=O)c(OC)c1C2=O`, for which the IC50 was more than 100 µM in data set [1], 11.6 µM in data set [2], 68.6 µM in data set [3] and 4.6 µM in data set [4] (read-out: IC50).

Turning to `COc1cc(OC)c2c(c1)C(=O)c1cc(C)c(Cn3cc(F)c(=O)n(Cc4ccc5c(c4)OCO5)c3=O)c(OC)c1C2=O`, the IC50 in data set [1] was more than 100 µM; in data set [2], more than 100 µM; in data set [3], 91 µM; in data set [4] (read-out: IC50), 30 µM.

Regarding `COc1cc(OC)c2c(c1)C(=O)c1cc(C)c(Cn3cc(F)c(=O)n(Cc4ccccc4F)c3=O)c(OC)c1C2=O`, the 50% inhibitory concentration (IC50) in data set [1] was 61 µM; in data set [2], 91.1 µM; in data set [3] it was more than 100 µM; in data set [4] (read-out: IC50), 66.6 µM. Further, the selectivity ratio at 48 h in data set [6] was 1.5.

For the molecule `COc1cc(OC)c2c(c1)C(=O)c1cc(C)c(Cn3cc(F)c(=O)n(Cc4cccc(F)c4)c3=O)c(OC)c1C2=O`, the IC50 in data set [1], in data set [2], in data set [3] and in data set [4] (read-out: IC50) was more than 100 µM throughout.

As for `COc1cc(OC)c2c(c1)C(=O)c1cc(C)c(Cn3cc(F)c(=O)n(Cc4ccccc4C#N)c3=O)c(OC)c1C2=O`, the “Ratio IC50” value in data set [5] stood at 3. The IC50 in data set [1] stood at 21.4 µM; in data set [2], 22.6 µM; in data set [3], 39.9 µM; in data set [4] (read-out: IC50) it was 29.6 µM. Moreover, the selectivity ratio at 48 h in data set [7] came out at 23.

With `Cc1cc(O)c2c(c1)C(=O)c1cc(O)cc(O)c1C2=O` [EMODIN], the IC50 worked out at 61.3 µM in data set [1], 16 µM in data set [2], 13.1 µM in data set [3] and 1.3 µM in data set [4] (read-out: IC50).

As for `O=c1[nH]cc(F)c(=O)[nH]1` [FLUOROURACIL], the IC50 in data set [1] was determined as 76 µM; in data set [2], 85.5 µM; in data set [3], 76.7 µM; in data set [4], 42.9 µM.

The term IC50 denotes the point on the concentration scale where inhibition reaches its midpoint.
